Laboratory results: ChEMBL document CHEMBL1201862, “PubChem BioAssay data set” (2004)
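These data come from cells grown in 96-well plates and exposed to compound for 48 hours at five concentrations. GI50: concentration for 50% inhibition of growth.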 Active and inactive are the calls of the source. Cut-off read from the data, not from the text of the source: active = GI50 up to about 1.1 µM and inactive = higher.

What was measured:
Test in all cases: growth of human tumour cells (NCI), 48 h
[1] = system: CCRF-CEM
[2] = system: HOP-92
[3] = system: PC-3
[4] = system: UACC-257
[5] = system: MDA-MB-231
[6] = system: OVCAR-5
[7] = system: LOX IMVI
[8] = system: MDA-N
[9] = system: SW-620
[10] = system: SNB-75
[11] = system: SF-268
[12] = system: RXF 393
[13] = system: UACC-62
[14] = system: A549
[15] = system: BT-549
[16] = system: ACHN
[17] = system: SK-OV-3
[18] = system: Malme-3M
[19] = system: SR
[20] = system: SF-539

| SMILES | GI50 [1] | GI50 [2] | GI50 [3] | GI50 [4] | GI50 [5] | GI50 [6] | GI50 [7] | GI50 [8] | GI50 [9] | GI50 [10] | GI50 [11] | GI50 [12] | GI50 [13] | GI50 [14] | GI50 [15] | GI50 [16] | GI50 [17] | GI50 [18] | GI50 [19] | GI50 [20] |
| --- | --- | --- | --- | --- | --- | --- | --- | --- | --- | --- | --- | --- | --- | --- | --- | --- | --- | --- | --- | --- |
| Cc1ccsc1/C=N/Nc1cc(C)c2ccccc2n1 | 17.1 µM (inactive) | 13.7 µM (inactive) | 14.7 µM (inactive) | 6.78 µM (inactive) | 0.637 µM (active) | 24.3 µM (inactive) | 12 µM (inactive) | 14.5 µM (inactive) | 17.2 µM (inactive) | 13.8 µM (inactive) | 17.6 µM (inactive) | 20.7 µM (inactive) | 12.5 µM (inactive) | 9.55 µM (inactive) | 21 µM (inactive) | 12.9 µM (inactive) | 17.3 µM (inactive) |  |  |  |
| C=CCCC(CCC=C)(C(=O)O)C(=O)O | > 100 µM (inactive) |  | > 100 µM (inactive) | > 100 µM (inactive) | > 100 µM (inactive) | > 100 µM (inactive) | > 100 µM (inactive) | > 100 µM (inactive) | > 100 µM (inactive) | > 100 µM (inactive) | > 100 µM (inactive) | > 100 µM (inactive) | > 100 µM (inactive) | > 100 µM (inactive) | > 100 µM (inactive) | > 100 µM (inactive) |  | > 100 µM (inactive) | > 100 µM (inactive) | > 100 µM (inactive) |
| C=C1CC(Cn2cc(C)c(=O)[nH]c2=O)(c2ccc(Cl)cc2)OC1=O (stereo not given) | 0.855 µM (active) | 0.438 µM (active) | 3.08 µM (inactive) | 1.4 µM (inactive) | 3.05 µM (inactive) | 14.9 µM (inactive) | 1.56 µM (inactive) | 2.99 µM (inactive) | 1.44 µM (inactive) | 10.7 µM (inactive) | 17.1 µM (inactive) |  | 2.44 µM (inactive) | 16.6 µM (inactive) | 1.51 µM (inactive) | 3.83 µM (inactive) | 14.9 µM (inactive) | 1.88 µM (inactive) | 1.17 µM (inactive) | 10.9 µM (inactive) |
| c1ccc2c(c1)[C@@H]1O[C@@H]1[C@@]13O[C@@]21[C@H]1O[C@H]1c1ccccc13 | 4.48 µM (inactive) | 9.89 µM (inactive) | 13.1 µM (inactive) | 17.6 µM (inactive) | 15.8 µM (inactive) | 17.1 µM (inactive) | 10.2 µM (inactive) | 15.6 µM (inactive) | 12.8 µM (inactive) | 12.9 µM (inactive) | 13.7 µM (inactive) | 12.6 µM (inactive) | 12.2 µM (inactive) | 15.7 µM (inactive) | 16.2 µM (inactive) | 12.9 µM (inactive) | 21.5 µM (inactive) | 12.7 µM (inactive) |  | 16.5 µM (inactive) |
| O=[N+]([O-])c1cc2c([N+](=O)[O-])cccc2o1 | 2.48 µM (inactive) | 17.4 µM (inactive) | 12.4 µM (inactive) | 6.93 µM (inactive) | 12.3 µM (inactive) |  | 3.66 µM (inactive) | 7.93 µM (inactive) | 2.86 µM (inactive) |  | 15.7 µM (inactive) | 5.51 µM (inactive) | 13 µM (inactive) | 30.1 µM (inactive) | 15.7 µM (inactive) | 3.34 µM (inactive) | 16.8 µM (inactive) | 13.6 µM (inactive) |  | 2.49 µM (inactive) |
| CCN(C(=O)/C=C/c1ccco1)c1ccccc1 | > 100 µM (inactive) | > 100 µM (inactive) | > 100 µM (inactive) | > 100 µM (inactive) | > 100 µM (inactive) | > 100 µM (inactive) | > 100 µM (inactive) | > 100 µM (inactive) | > 100 µM (inactive) | > 100 µM (inactive) | > 100 µM (inactive) | > 100 µM (inactive) | > 100 µM (inactive) | > 100 µM (inactive) | > 100 µM (inactive) | > 100 µM (inactive) | > 100 µM (inactive) |  | 46.2 µM (inactive) |  |
| NNC(=O)c1ccc(-n2nnc(C(=O)NN)c2C(=O)NN)cc1 | > 100 µM (inactive) | > 100 µM (inactive) | > 100 µM (inactive) | > 100 µM (inactive) | > 100 µM (inactive) | > 100 µM (inactive) | > 100 µM (inactive) | > 100 µM (inactive) |  |  |  |  |  | > 100 µM (inactive) | > 100 µM (inactive) | > 100 µM (inactive) |  | > 100 µM (inactive) | > 100 µM (inactive) |  |
| CC(C)(C)c1cc(C(C)(C)C)c(P=C(Cl)Cl)c(C(C)(C)C)c1 (stereo not given) | > 100 µM (inactive) | > 100 µM (inactive) | > 100 µM (inactive) | > 100 µM (inactive) | > 100 µM (inactive) | > 100 µM (inactive) | > 100 µM (inactive) | > 100 µM (inactive) | > 100 µM (inactive) | > 100 µM (inactive) | > 100 µM (inactive) |  | > 100 µM (inactive) | > 100 µM (inactive) | > 100 µM (inactive) | > 100 µM (inactive) | > 100 µM (inactive) | > 100 µM (inactive) | > 100 µM (inactive) | > 100 µM (inactive) |
| COc1ccc(Cn2nc(OCc3ccccn3)c3cc([N+](=O)[O-])ccc32)cc1 | > 100 µM (inactive) |  | > 100 µM (inactive) | > 100 µM (inactive) | > 100 µM (inactive) | > 100 µM (inactive) | > 100 µM (inactive) | > 100 µM (inactive) | > 100 µM (inactive) |  | > 100 µM (inactive) | > 100 µM (inactive) | 35.7 µM (inactive) | > 100 µM (inactive) | > 100 µM (inactive) | > 100 µM (inactive) | 63.7 µM (inactive) | > 100 µM (inactive) | > 100 µM (inactive) | 33.3 µM (inactive) |
| CCOC(=O)C1C(c2ccc(OC)cc2)c2c(nn(-c3ccccc3)c2O)CC1(C)O (stereo not given) | 7.1 µM (inactive) | 92.3 µM (inactive) | 7.5 µM (inactive) | 3.31 µM (inactive) | 59.2 µM (inactive) | > 100 µM (inactive) | 0.813 µM (active) | 3.21 µM (inactive) | 18.5 µM (inactive) | > 100 µM (inactive) | > 100 µM (inactive) |  | 1.54 µM (inactive) | 18.9 µM (inactive) | 0.0159 µM (active) | 23 µM (inactive) |  | > 100 µM (inactive) | 6.49 µM (inactive) | 92.7 µM (inactive) |
| c1ccc(/N=C2\c3ccsc3/C(=N/c3ccccc3)c3ccsc32)cc1 | 2.97 µM (inactive) | 2.61 µM (inactive) | 2.16 µM (inactive) | 1.29 µM (inactive) | 1.77 µM (inactive) | 1.67 µM (inactive) | 0.458 µM (active) | 0.244 µM (active) | 1.89 µM (inactive) | 1.2 µM (inactive) | 2.4 µM (inactive) | 1.77 µM (inactive) | 1.84 µM (inactive) | 2.03 µM (inactive) | 2.07 µM (inactive) | 1.71 µM (inactive) | 6.59 µM (inactive) | 0.344 µM (active) |  | 1.99 µM (inactive) |
| CC[C@]1(Cc2ccc(OC)c(OC)c2)C=[N+]([O-])O[C@H](OC2CCCC2(c2ccccc2)c2ccccc2)[C@@H]1OC(=O)c1ccccc1 (stereo not given in full) | 3.27 µM (inactive) | 3.02 µM (inactive) | 5.47 µM (inactive) | 14 µM (inactive) | > 24.9 µM (inactive) | 22.3 µM (inactive) | 3.6 µM (inactive) | 8.17 µM (inactive) | 8.87 µM (inactive) | 6.62 µM (inactive) | 28.7 µM (inactive) | 4.35 µM (inactive) | 8.67 µM (inactive) | 5.92 µM (inactive) | > 27.1 µM (inactive) | 7.83 µM (inactive) | > 47.9 µM (inactive) |  | 3.1 µM (inactive) | > 100 µM (inactive) |
| O=C1NC(N2CCCCC2)=N/C1=C\c1ccco1 | > 100 µM (inactive) | > 100 µM (inactive) | > 100 µM (inactive) | > 100 µM (inactive) | > 100 µM (inactive) | > 100 µM (inactive) | > 100 µM (inactive) | > 100 µM (inactive) | > 100 µM (inactive) |  | > 100 µM (inactive) | > 100 µM (inactive) | > 100 µM (inactive) | > 100 µM (inactive) | > 100 µM (inactive) | > 100 µM (inactive) | > 100 µM (inactive) | > 100 µM (inactive) | > 100 µM (inactive) | > 100 µM (inactive) |
| CCC(C#N)NC(=O)NC(C#N)CC (stereo not given) | > 100 µM (inactive) | 31.7 µM (inactive) | 91.8 µM (inactive) | > 100 µM (inactive) | > 100 µM (inactive) | > 100 µM (inactive) | > 100 µM (inactive) | > 100 µM (inactive) | > 100 µM (inactive) |  | > 100 µM (inactive) | > 100 µM (inactive) | > 100 µM (inactive) | 77.3 µM (inactive) | > 100 µM (inactive) | > 100 µM (inactive) | > 100 µM (inactive) | > 100 µM (inactive) | > 100 µM (inactive) | > 100 µM (inactive) |
| O=C1Cc2c([nH]c3c(Cl)cccc23)-c2ccccc2N1 | > 100 µM (inactive) | 95.7 µM (inactive) | > 100 µM (inactive) |  | > 100 µM (inactive) | > 100 µM (inactive) | > 100 µM (inactive) | > 100 µM (inactive) | > 100 µM (inactive) | > 100 µM (inactive) | > 100 µM (inactive) |  | > 100 µM (inactive) | > 100 µM (inactive) | > 100 µM (inactive) | > 100 µM (inactive) | > 100 µM (inactive) | > 100 µM (inactive) | > 100 µM (inactive) | > 100 µM (inactive) |
